Values of other authors in publication PMC8287861 (Frontiers in Microbiology, 2021).
≈ marks a conversion by molar mass, not a printed value. Read-outs that look alike come from different tables or passages of the source.

Tests used:
[1] = system: KPC-producing strains of Klebsiella pneumoniae and blaKPC mutants; design: method as in Nelson et al., 2019; conditions: ref Nelson et al., 2019
PAM4938 VCC-1 = system: PAM4938 VCC-1; design: method as in Lomovskaya et al. (2020b); conditions: PAM4938, VCC-1, class A-CARB; ref Lomovskaya et al. (2020b)

For `CC(C)(O/N=C(\C(=O)N[C@@H]1C(=O)N2C(C(=O)[O-])=C(C[n+]3ccccc3)CS[C@H]12)c1csc(N)n1)C(=O)O` [Ceftazidime, ceftazidime], which MIC ([1]; KP1074, KPC-3, SHV-11, TEM-1/GD) is on record?
The MIC was >128 µg/mL.

And the MIC ([1]; KP1099, KPC-2, SHV-11, SHV-12, CTX-M-14/GD)?
Its MIC is >128 µg/mL.

What about the MIC ([1]; KP1102, KPC-3, TEM-1, SHV-11/GD) of the same compound?
The MIC was >128 µg/mL.

What about the MIC ([1]; KP1246, KPC-3, SHV-12, SHV-11/FL) of the same compound?
The MIC was >128 µg/mL.

And the MIC ([1]; KP1252, KPC-3, TEM-1, SHV-11/FL)?
The MIC was >128 µg/mL.

And the MIC ([1]; KP1317, KPC-3, TEM-1, SHV-11/GD)?
Its MIC is >128 µg/mL.

What about the MIC ([1]; KP1500, KPC-3, TEM-1, SHV-11, CTX-M-15 OXA-1 OXA-9/IS at −48) of the same compound?
The MIC was >128 µg/mL.

What about the MIC ([1]; KPM3191, KPC-3:: DDK duplication at aa#831 (KPC-29)) of the same compound?
Its MIC is >128 µg/mL.

What about the MIC ([1]; KPM3192, KPC-3:: D179Y (KPC-31)) of the same compound?
Its MIC is >128 µg/mL.

What about the MIC ([1]; KPM3200, KPC-3::duplication of EAVI (aa#278)) of the same compound?
Its MIC is >128 µg/mL.

What about the MIC ([1]; KPM3205, KPC-3 ::duplication of KKDY (aa#273)) of the same compound?
The MIC was >128 µg/mL.

What about the MIC ([1]; KPM3210, KPC-2::D179N) of the same compound?
The MIC was >128 µg/mL.

What about the MIC ([1]; KPM3212, deletion of ELNSAI at aa#497) of the same compound?
The MIC was >128 µg/mL.

What about the MIC ([1]; KPM3213, KPC-2::D179Y (KPC-31), selected from KP1099) of the same compound?
Its MIC is >128 µg/mL.

And the MIC ([1]; KPM3214, KPC-2::D179A)?
Its MIC is >128 µg/mL.

And the MIC ([1]; KPM3493, KPC-3::duplication of EL at aa#164 (KPC-25))?
The MIC was >128 µg/mL.

And the MIC ([1]; KPM3494, KPC-3::R167S)?
The MIC was >128 µg/mL.

And the MIC ([1]; KPM3495, KPC-3::A175V)?
Its MIC is >128 µg/mL.

What about the MIC ([1]; KPM3511, KPC-3::P174Q) of the same compound?
Its MIC is >128 µg/mL.

What about the MIC ([1]; KPM3512, KPC-3:: P174L) of the same compound?
The MIC was >128 µg/mL.

And the MIC ([1]; KPM3517, KPC-3::D179Y (KPC-31))?
Its MIC is >128 µg/mL.

And the MIC ([1]; KPM3520, Both WT and mutant KPC-3::duplication of 8aa (aa#264–271))?
The MIC was >128 µg/mL.

And the MIC ([1]; KPM3523, Both WT and mutant KPC-3:: deletion of EL (aa#241–242))?
The MIC was >128 µg/mL.

And the MIC ([1]; KPM3546, KPC-3::R164H)?
Its MIC is >128 µg/mL.

Which MIC (PAM4938 VCC-1) does the source give for `CCN1CCN(C(=O)N[C@@H](C(=O)N[C@@H]2C(=O)N3[C@@H]2SC(C)(C)[C@@H]3C(=O)O)c2ccccc2)C(=O)C1=O` [Piperacillin, piperacillin] here?
The MIC was 16 µg/mL (≈ 30.9 µM).
